The text below walks through data of US11324706B2, “Composition for inhibiting growth of breast cancer stem cells containing phenylacetaldehyde” (JEJU NATIONAL UNIVERSITY INDUSTRY-ACADEMIC COOPERATION …, priority 2016, dated 2022).

SMILES strings stand for the structures.

Common to all, as to type: cell-based, human
The subject of assay [1] is MDA-MB-231 cells. As to the kind of experiment: Cell proliferation (MTS) analysis, MDA-MB-231. The following applies: MDA-MB-231, 48 hours after PAA treatment. The procedure: (FIGS. 1A, B and C) show chemical structures of PAA and viability of MCF-7 and MDA-MB-231 cells depending on PAA. MCF-7 and MDA-MB-231 cells were treated with increasing concentrations of PAA for 48 hours. Anti-proliferation effects of PAA were measured by MTS analysis.
Proliferation rates of MCF-7 and MDA-MB-231 cells were measured using a CellTiter 96® aqueous one solution cell proliferation kit. MCF-7 and MDA-MB-231 cells were cultured in the presence of PAA (0.1, 0.2, 0.5, 1 and 2 mM) on a 96-well plate for 48 hours. In accordance with the manufacturer's protocol, absorbance at 490 nm was determined using a 96-well plate reader (Dynex Revelation, Dynex Ltd., Billingshurst, UK). All data was determined by measurement of three sets.
In order to investigate anti-proliferation effects of PAA in human breast cancer cell lines, i.e., MCF-7 and MDA-MB-231, the cancer cell lines were treated with different concentrations of PAA and then MTS analysis was conducted.

Assay [2] deals with MDA-MB-231 cells. As to the kind of experiment: Annexin V/PI staining analysis (FACS). The following applies: MDA-MB-231, PAA 0.2 mM, 24 hours. The method, then: (FIGS. 1D, E and F) show effects of PAA on apoptosis of breast cancer cells. MDA-MB-231 cells were treated with PAA for 24 hours, and apoptotic cells were analyzed by FACS using an Annexin V-PI staining kit. Caspase 3/7 activity in MDA-MB-231 cells was analyzed using a Caspase-Gloss 3/7 kit. By fluorescent staining, apoptotic cells were analyzed and nuclei thereof were stained with Hoechst 33258 in breast cancers (magnified, 200×) (FIG. 1);
[…] In accordance with the manufacturer's instructions, the cancer cells were double-stained with PI and FITC-Annexin V. The sample was analyzed by flow cytometry (Accuri C6, BD, San Diego, Calif., USA).

Assay [3] has as its system ALDH-positive cell populations of MDA-MB-231 cells. As to the kind of experiment: ALDEFLUOR assay. The following applies: MDA-MB-231, PAA 0.1 mM. The method, then:
MDA-MB-231 cells were treated with PAA (0.1 mM) or DMSO, and then subjected to ALDEFLUOR assay and FACS analysis. A top panel represents, as a negative control group, an ALDH-positive cell treated with an ALDH inhibitor, DEAB, and a bottom panel represents an ALDH-positive cell not treated with DEAB. An ALDH-positive population was represented by a box;
An ALDEFLUOR assay system provides a novel approach regarding identification, evaluation and separation of CSCs based on activity of aldehyde dehydrogenase (ALDH). BODIPY-aminoacetaldehyde was added as an active reagent to breast cancer cells and converted into fluorescent BODIPY-aminoacetate by aldehyde dehydrogenase (ALDH). An ALDH inhibitor, i.e., diethylaminobenzaldehyde (DEAB), was used as a negative control group. MCF-7 cells were treated with 200 μM of PAA for 24 hours, and the rate of ALDH-positive cells was analyzed by ALDEFLUOR assay. ALDH positive and negative cells were classified by flow cytometry (Accuri C6, BD, San Diego, Calif., USA).

Turning to `O=CCc1ccccc1` [PAA, phenylacetaldehyde], the “PAA concentration at which growth of the cell line was concentration-dependently inhibited” value in the assay on MDA-MB-231 cells [1] was at least 100 μm. The “number of breast cancer cells (Annexin V+) killed” value with MDA-MB-231 cells [2] is reported as “increased”. Besides, the “proportion of ALDH-positive breast cancer cells” value in assay [3] worked out at 0.1%.
